This note sets out measurements from publication PMC8162438, “Cancer cell-selective modulation of mitochondrial respiration and metabolism by potent organogold(III) dithiocarbamates” (Chemical Science, 2020).

In the test the test system is MDA-MB-231. The test can be described thus: Whole-cell uptake after pre-treatment with uptake inhibitors (GF-AAS). In kind it is cell-based. The following applies: MDA-MB-231, 5 μM, 24 h; NaN3, chlorpromazine, Me-β-CD, genistein, wortmannin. As to the method:
To understand cell uptake mechanisms, detailed uptake studies using GF-AAS were conducted whereby MDA-MB-231 cells were incubated with gold compound, 2a after cellular pretreatment with one of a number of known inhibitors of cellular uptake. Sodium azide (NaN3), which is known to inhibit mitochondrial oxidative phosphorylation, was used as a general inhibitor of energy (ATP)-dependent (active) uptake; chlorpromazine (CL) was utilized as an inhibitor of clathrin-dependent endocytosis (CDE); β-cyclodextrin (Me-β-CD) and genestein (Gen) were used as inhibitors of clathrin-independent endocytosis (CIE); and, wortmannin (Wort) was employed as a known inhibitor of micropinocytosis. […] Being an […] pathway illustrates that these compounds are not dependent on oxidative phosphorylation for uptake, despite; their ability to modulate OXPHOS. […]
and treated at a final concentration of 5 µ M and treated for 24 hours as well. The cells were then collected by trypsinization and centrifuged at 2000 rpm for 5 minutes to form a pellet. […]
text (Figure 5C). Samples 37 °C, NaN 3, methyl-β-cyclodextrin, and chlorpromazine hydrochloride were calculated using calibration curve Fig. S134 and samples wortmannin, genistein, and +4 °C were calculated using calibration curve Fig. S135. […]

Molecules are shown by their SMILES.

Consider `C[N+](C)=C1[S][Au-2]2([S]1)[c]1ccccc1Cc1cccc[n+]12.F[P-](F)(F)(F)(F)F` (stereo not shown) [2a], for which the “Uptake after pre-treatment with uptake inhibitors” value was “significantly decreased with all inhibitors with the exception of NaN3”.
